Values joined by “and” are separate entries in the source; they are usually repeats but may differ in a detail not shown here. Equal entries are not always repeated.
Experiment: Single dose oral capsule pharmacokinetics of BHV-3500 in dogs (plasma LC-MS/MS)
Assay type: in vivo, beagle dogs
Set-up: key to t1/2 / Tmax / Cmax / AUC0-4 hr: X = no plasma exposure
Conditions: for increase of plasma level versus no vehicle (Group 4): Group 5, 50 mg with Vehicle 6
Protocol: The pharmacokinetics (PK) of BHV-3500 after a single oral capsule of BHV-3500 in dogs were investigated.
After each dose, blood samples (approximately 3 mL from the jugular vein) for determination of plasma levels of BHV-3500 were obtained from of each dog at six time points (pre-dose; 15, 30, and 60 minutes and 2 and 4 hours post-dose. EDTA was used as the anticoagulant. Plasma samples were frozen at approximately −70′C until analyzed.
For the determination of BHV-3500 in plasma, a 50 μL aliquot from each sample was transferred into the appropriate well of a 96-well plate to which 10 μL of 50% acetonitrile (ACN) in water was added, followed by 250 μL of internal standard solution (10 ng/mL BHV-3500-d8 in ACN). After sealing the plate and vortexing for approximately 5 minutes, the plate was centrifuged at 4,000 rpm for 10 minutes at 4±4° C. A portion (100 μL) of the resulting supernatant was transferred to into the appropriate well (containing 300 μL 0.15% formic acid in water) of another 96-well plate. This plate was sealed and its contents mixed prior to instrumental analysis.
Freshly prepared BHV-3500 standard curves and QC samples were analyzed along with the study samples. Instrument calibrators were prepared by adding 10 μL of a stock BHV-3500 solution to 50 μL of blank dog plasma. Blank dog plasma was sourced from BioIVT (Hicksville, NY) and stored frozen at −20° C. Nominal calibrator concentrations ranged from 2.00 to 200 ng/mL. QC samples were prepared at concentrations of 6.00, 50.0 and 150 ng/mL. Calibrators and QC samples were processed for analysis following the extraction procedure described above.
Calibrator, QC and study samples were analyzed under LC-S/MS instrument conditions detailed in Table 7.
Calibration curves were calculated from the linear regression (weighting factor of 1/x2) of the analyte to internal standard peak area ratios versus the analyte concentrations. Concentrations of analyte in the samples were determined using the peak area ratios and the regression parameters of the calibration curves.
Individual animal plasma BHV-3500 concentration data at scheduled (nominal) sampling times were analyzed using the non-compartmental model f r extravascular administration with Phoenix WinNonlin software (Version 8.1; Certara, Princeton, NJ).
Elimination rate constant values (λz) were calculated by log-linear regression on data points of the terminal phase (using Phoenix WinNonlin's Best Fit Lambda Z Calculation Method option) when allowed by the data; the plasma elimination half-life (t1/2) was calculated as ln(2)/λz. Area under the plasma concentration-time curve values from time zero to the concentration at the 4 hour time point (AUC0-4 hr) were calculated by the linear-up/log-down trapezoidal rule.
Nominal dose levels were used for PK analysis. The PK parameters listed below were evaluated (as applicable and when allowed by the data). • Elimination half-life (t1/2) • Time of occurrence of maximum plasma concentration (Tmax) • Maximum plasma concentration (Cmax) • Area under plasma concentration-time curve [0 to the 4 hour time point; AUC0-4hr]

[1] = Group 1, oral capsule, 20 mg BHV-3500, no vehicle, average
[2] = Group 1, oral capsule, 20 mg BHV-3500, no vehicle, median
[3] = Group 3, oral capsule, 20 mg BHV-3500 in 25 mg DDM, individual dogs
[4] = Group 5, oral capsule, 50 mg BHV-3500 in 900 mg vehicle of Formulation 2 (SEDDS excipients), individual dogs

Cc1cc(C[C@@H](NC(=O)N2CCC(c3cc4ccccc4[nH]c3=O)CC2)C(=O)N2CCN(C3CCN(C)CC3)CC2)cc2cn[nH]c12 [BHV-3500, (R)—N-(3-(7-methyl-1H indazol-5-yl)-1-(4-(1-methylpiperidin-4-yl)piperazin-1-yl)-1-oxopropan-2-yl)-4-(2-oxo-1,2 dihydroquinolin-3-yl)piperidine-1-carboxamide]
plasma levels at all time points (Group 1, oral capsule, 20 mg BHV-3500, no vehicle): BQL (BQL = below quantitation limit (2.0 ng/mL)) | BHV-3500 Concentration in Dog Plasma (Group 1, oral capsule, 20 mg BHV-3500, no vehicle, 0.25 h post-dose, average): BQL (BQL = below quantitation limit (2.0 ng/mL)) | BHV-3500 Concentration in Dog Plasma (Group 1, oral capsule, 20 mg BHV-3500, no vehicle, 0.25 h post-dose, individual dogs): BQL (BQL = below quantitation limit (2.0 ng/mL)) | BHV-3500 Concentration in Dog Plasma (Group 1, oral capsule, 20 mg BHV-3500, no vehicle, 0.5 h post-dose, average): BQL (BQL = below quantitation limit (2.0 ng/mL)) | BHV-3500 Concentration in Dog Plasma (Group 1, oral capsule, 20 mg BHV-3500, no vehicle, 0.5 h post-dose, individual dogs): BQL (BQL = below quantitation limit (2.0 ng/mL)) | BHV-3500 Concentration in Dog Plasma (Group 1, oral capsule, 20 mg BHV-3500, no vehicle, 1 h post-dose, average): BQL (BQL = below quantitation limit (2.0 ng/mL)) | BHV-3500 Concentration in Dog Plasma (Group 1, oral capsule, 20 mg BHV-3500, no vehicle, 1 h post-dose, individual dogs): BQL (BQL = below quantitation limit (2.0 ng/mL)) | BHV-3500 Concentration in Dog Plasma (Group 1, oral capsule, 20 mg BHV-3500, no vehicle, 2 h post-dose, average): BQL (BQL = below quantitation limit (2.0 ng/mL)) | BHV-3500 Concentration in Dog Plasma (Group 1, oral capsule, 20 mg BHV-3500, no vehicle, 2 h post-dose, individual dogs): BQL (BQL = below quantitation limit (2.0 ng/mL)) | BHV-3500 Concentration in Dog Plasma (Group 1, oral capsule, 20 mg BHV-3500, no vehicle, 4 h post-dose, average): BQL (BQL = below quantitation limit (2.0 ng/mL)) | BHV-3500 Concentration in Dog Plasma (Group 1, oral capsule, 20 mg BHV-3500, no vehicle, 4 h post-dose, individual dogs): BQL (BQL = below quantitation limit (2.0 ng/mL)) | AUC0-4 hr [1]: X | Cmax [1]: X | Tmax [2]: X | t1/2 [2]: X | BHV-3500 Concentration in Dog Plasma (Group 2, oral capsule, 20 mg BHV-3500 in 900 mg vehicle of Formulation 2 (SEDDS excipients), 0.25 h post-dose, average): BQL (BQL = below quantitation limit (2.0 ng/mL)) | BHV-3500 Concentration in Dog Plasma (Group 2, oral capsule, 20 mg BHV-3500 in 900 mg vehicle of Formulation 2 (SEDDS excipients), 0.25 h post-dose, individual dogs): BQL (BQL = below quantitation limit (2.0 ng/mL)) | BHV-3500 Concentration in Dog Plasma (Group 2, oral capsule, 20 mg BHV-3500 in 900 mg vehicle of Formulation 2 (SEDDS excipients), 0.5 h post-dose, average): BQL (BQL = below quantitation limit (2.0 ng/mL)) | BHV-3500 Concentration in Dog Plasma (Group 2, oral capsule, 20 mg BHV-3500 in 900 mg vehicle of Formulation 2 (SEDDS excipients), 0.5 h post-dose, individual dogs): BQL (BQL = below quantitation limit (2.0 ng/mL)) | BHV-3500 Concentration in Dog Plasma (Group 2, oral capsule, 20 mg BHV-3500 in 900 mg vehicle of Formulation 2 (SEDDS excipients), 1 h post-dose, individual dogs): BQL (BQL = below quantitation limit (2.0 ng/mL)) | BHV-3500 Concentration in Dog Plasma (Group 2, oral capsule, 20 mg BHV-3500 in 900 mg vehicle of Formulation 2 (SEDDS excipients), 2 h post-dose, individual dogs): BQL (BQL = below quantitation limit (2.0 ng/mL)) and 19.4 ng/mL and 8.94 ng/mL | BHV-3500 Concentration in Dog Plasma (Group 2, oral capsule, 20 mg BHV-3500 in 900 mg vehicle of Formulation 2 (SEDDS excipients), 4 h post-dose, individual dogs): BQL (BQL = below quantitation limit (2.0 ng/mL)) | Cmax (Group 2, oral capsule, 20 mg BHV-3500 in 900 mg vehicle of Formulation 2 (SEDDS excipients), individual dogs): 19.4 ng/mL and 8.94 ng/mL | BHV-3500 Concentration in Dog Plasma (Group 3, oral capsule, 20 mg BHV-3500 in 25 mg DDM, 0.25 h post-dose, average): BQL (BQL = below quantitation limit (2.0 ng/mL)) | BHV-3500 Concentration in Dog Plasma (Group 3, oral capsule, 20 mg BHV-3500 in 25 mg DDM, 0.25 h post-dose, individual dogs): BQL (BQL = below quantitation limit (2.0 ng/mL)) | BHV-3500 Concentration in Dog Plasma (Group 3, oral capsule, 20 mg BHV-3500 in 25 mg DDM, 0.5 h post-dose, individual dogs): BQL (BQL = below quantitation limit (2.0 ng/mL)) | BHV-3500 Concentration in Dog Plasma (Group 3, oral capsule, 20 mg BHV-3500 in 25 mg DDM, 1 h post-dose, individual dogs): BQL (BQL = below quantitation limit (2.0 ng/mL)) | BHV-3500 Concentration in Dog Plasma (Group 3, oral capsule, 20 mg BHV-3500 in 25 mg DDM, 2 h post-dose, individual dogs): 9.60 ng/mL and BQL (BQL = below quantitation limit (2.0 ng/mL)) and 28.2 ng/mL | BHV-3500 Concentration in Dog Plasma (Group 3, oral capsule, 20 mg BHV-3500 in 25 mg DDM, 4 h post-dose, individual dogs): BQL (BQL = below quantitation limit (2.0 ng/mL)) | Cmax [3]: 9.60 ng/mL and 14.0 ng/mL and 28.2 ng/mL | Tmax [3]: 30 min | BHV-3500 Concentration in Dog Plasma (Group 4, oral capsule, 50 mg BHV-3500, no vehicle, 0.25 h post-dose, average): BQL (BQL = below quantitation limit (2.0 ng/mL)) | BHV-3500 Concentration in Dog Plasma (Group 4, oral capsule, 50 mg BHV-3500, no vehicle, 0.25 h post-dose, individual dogs): BQL (BQL = below quantitation limit (2.0 ng/mL)) | BHV-3500 Concentration in Dog Plasma (Group 4, oral capsule, 50 mg BHV-3500, no vehicle, 0.5 h post-dose, average): BQL (BQL = below quantitation limit (2.0 ng/mL)) | BHV-3500 Concentration in Dog Plasma (Group 4, oral capsule, 50 mg BHV-3500, no vehicle, 0.5 h post-dose, individual dogs): BQL (BQL = below quantitation limit (2.0 ng/mL)) | BHV-3500 Concentration in Dog Plasma (Group 4, oral capsule, 50 mg BHV-3500, no vehicle, 1 h post-dose, individual dogs): 4.25 ng/mL and 3.55 ng/mL | BHV-3500 Concentration in Dog Plasma (Group 4, oral capsule, 50 mg BHV-3500, no vehicle, 2 h post-dose, individual dogs): 4.35 ng/mL and 6.61 ng/mL | BHV-3500 Concentration in Dog Plasma (Group 4, oral capsule, 50 mg BHV-3500, no vehicle, 4 h post-dose, average): BQL (BQL = below quantitation limit (2.0 ng/mL)) | BHV-3500 Concentration in Dog Plasma (Group 4, oral capsule, 50 mg BHV-3500, no vehicle, 4 h post-dose, individual dogs): BQL (BQL = below quantitation limit (2.0 ng/mL)) | Cmax (Group 4, oral capsule, 50 mg BHV-3500, no vehicle, individual dogs): 4.35 ng/mL and 6.61 ng/mL | increase of plasma level versus no vehicle (Group 4) (1 hour post-dose): 3.4 × | increase of plasma level versus no vehicle (Group 4) (2 hours post-dose): 6.6 × | BHV-3500 Concentration in Dog Plasma (Group 5, oral capsule, 50 mg BHV-3500 in 900 mg vehicle of Formulation 2 (SEDDS excipients), 0.25 h post-dose, average): BQL (BQL = below quantitation limit (2.0 ng/mL)) | BHV-3500 Concentration in Dog Plasma (Group 5, oral capsule, 50 mg BHV-3500 in 900 mg vehicle of Formulation 2 (SEDDS excipients), 0.25 h post-dose, individual dogs): BQL (BQL = below quantitation limit (2.0 ng/mL)) | BHV-3500 Concentration in Dog Plasma (Group 5, oral capsule, 50 mg BHV-3500 in 900 mg vehicle of Formulation 2 (SEDDS excipients), 0.5 h post-dose, average): BQL (BQL = below quantitation limit (2.0 ng/mL)) | BHV-3500 Concentration in Dog Plasma (Group 5, oral capsule, 50 mg BHV-3500 in 900 mg vehicle of Formulation 2 (SEDDS excipients), 0.5 h post-dose, individual dogs): BQL (BQL = below quantitation limit (2.0 ng/mL)) | BHV-3500 Concentration in Dog Plasma (Group 5, oral capsule, 50 mg BHV-3500 in 900 mg vehicle of Formulation 2 (SEDDS excipients), 1 h post-dose, individual dogs): 6.19 ng/mL and 5.55 ng/mL and 22.7 ng/mL | BHV-3500 Concentration in Dog Plasma (Group 5, oral capsule, 50 mg BHV-3500 in 900 mg vehicle of Formulation 2 (SEDDS excipients), 2 h post-dose, individual dogs): 13.8 ng/mL and 6.90 ng/mL and 101 ng/mL | BHV-3500 Concentration in Dog Plasma (Group 5, oral capsule, 50 mg BHV-3500 in 900 mg vehicle of Formulation 2 (SEDDS excipients), 4 h post-dose, individual dogs): 6.88 ng/mL and 2.62 ng/mL and 14.4 ng/mL | AUC0-4 hr [4]: 32.8 ng·h/mL and 17.7 ng·h/mL and 161 ng·h/mL | Cmax [4]: 13.8 ng/mL and 6.90 ng/mL and 101 ng/mL | BHV-3500 Concentration in Dog Plasma (Group 6, oral capsule, 50 mg BHV-3500 in 25 mg DDM, 0.25 h post-dose, average): BQL (BQL = below quantitation limit (2.0 ng/mL)) | BHV-3500 Concentration in Dog Plasma (Group 6, oral capsule, 50 mg BHV-3500 in 25 mg DDM, 0.25 h post-dose, individual dogs): BQL (BQL = below quantitation limit (2.0 ng/mL)) | BHV-3500 Concentration in Dog Plasma (Group 6, oral capsule, 50 mg BHV-3500 in 25 mg DDM, 0.5 h post-dose, average): BQL (BQL = below quantitation limit (2.0 ng/mL)) | BHV-3500 Concentration in Dog Plasma (Group 6, oral capsule, 50 mg BHV-3500 in 25 mg DDM, 0.5 h post-dose, individual dogs): BQL (BQL = below quantitation limit (2.0 ng/mL)) | BHV-3500 Concentration in Dog Plasma (Group 6, oral capsule, 50 mg BHV-3500 in 25 mg DDM, 1 h post-dose, individual dogs): BQL (BQL = below quantitation limit (2.0 ng/mL))

From patent publication US12622968B2, “Formulation for oral delivery of proteins, peptides and small molecules with poor permeability” (R.P. Scherer Technologies, LLC, priority 2019, dated 2026)
